Test results reported in patent US20240300991A1, “NUCLEOSIDE DERIVATIVE HAVING MULTI-TARGET KINASE INHIBITORY ACTIVITY AND PHARMACEUTICAL COMPOSITION FOR PREVENTING AND TREATING CANCER COMPRISING SAME” (FUTURE MEDICINE CO., LTD., priority 2021, published 2024).
pIC50: −log10 of the molar value.

Tests used:
[1] = tested on: SNU638 (stomach cancer cells); test: Inhibitory activity against cancer cells (sulforhodamine B staining); type: cell-based; details: 3 days, SRB staining
Procedure: (§1) In order to examine the anticancer activity of the nucleoside derivatives of the present invention synthesized in the Preparation Examples, the ICso of each of A549 (lung cancer cells), HCT116 (colon cancer cells), MDA-MB-231 (breast cancer cells), SK-Hep-1 (liver cancer cells), SNU638 (stomach cancer cells) and PC-3 (prostate cancer cells) against cancer cells was measured.
(§2) The test method is as follows. Cells were allowed to stand for 1 day and set as a control on day 0. Further, after a test material was added to the cells, the cells were allowed to stand for 3 days. Thereafter, the cells were stained with 1% acetic acid and 0.4% sulforhodamine B. The stained cells were dried and dissolved in 10 mM Tris (pH 10.0). Absorbance was measured at 515 nm, and the degree of cell division was determined using the following equation. After calculation as Cell division (%)=(average absorbancetest material−average absorbanceday 0)/(average absorbance control-average absorbanceday 0)×100, the degree of cell division was calculated through a non-linear regression analysis using Table Curve 2D v5.01 (Systat Software Inc., San Jose, CA, USA).

[2] = tested on: PC-3 (prostate cancer cells); test: as above; type: cell-based; details: 3 days, SRB staining
Procedure: as §1, §2

[3] = tested on: SK-Hep-1 (liver cancer cells); test: as above; type: cell-based; details: 3 days, SRB staining
Procedure: as §1, §2

[4] = tested on: MDA-MB-231 (breast cancer cells); test: as above; type: cell-based; details: 3 days, SRB staining
Procedure: as §1, §2

[5] = tested on: HCT116 (colon cancer cells); test: as above; type: cell-based; details: 3 days, SRB staining
Procedure: as §1, §2

[6] = tested on: A549 (lung cancer cells); test: as above; type: cell-based; details: 3 days, SRB staining
Procedure: as §1, §2

[7] = target: T1, NTRK1 (Homo sapiens, UniProt P04629); test: Kinase inhibition test (DNA-tagged kinase, affinity resin, qPCR readout); type: binding; design: key: (−) indicates no effect; (+) indicates weak inhibitory activity; (++) indicates a moderate level of inhibitory activity; (+++) indicates strong inhibitory activity; details: 1 μM of compound
T1 construct: made in house
Source text: (§3) In order to examine the inhibitory activity of the nucleoside derivatives of the present invention synthesized in the Preparation Examples against kinases, the nucleoside derivatives were confirmed to have inhibitory activity against neurotrophic tyrosine kinase receptor type 1 or tropomyosin receptor kinase A (NTRK1), casein kinase 1 isoform delta (CSNK1D), dual specificity tyrosine-phosphorylation-regulated kinase 1A (DYRK1A), dual specificity tyrosine-phosphorylation-regulated kinase 1B (DYRK1B) and receptor-type tyrosine-protein kinase or fms like tyrosine kinase 3 or cluster of differentiation antigen 135 (CD135) or fetal liver kinase-2 (Flk2) (FLT3).
(§4) The inhibition measurement method is as follows. Most of the kinases were produced by culturing a phage in which BL21 E. coli was tagged with a kinase at 32° C. until lysis, followed by centrifugation and filtration. Further, the kinases were produced using HEK-293 cells. Thereafter, the kinases were DNA tagged for qPCR. After an affinity resin was prepared by stirring a biotin-tagged substrate onto streptavidin-coated beads for 30 minutes, a non-specifically bound substrate was washed with a buffer (SeaBlock (Pierce), 1% BSA, 0.05% Tween 20, 1 mM DTT).
(§5) For a kinase test, the kinase, the substrate, the affinity resin, and a test material dissolved in dimethyl sulfoxide were stirred together in a buffer (20% SeaBlock, 0.17×PBS, 0.05% Tween20, and 6 mM DTT) at room temperature for 1 hour. Thereafter, an affinity substrate was washed with a buffer (1×PBS, 0.05% Tween20), and then suspended in an elution buffer (1×PBS, 0.05% Tween20, 0.5 μM non-biotinylated affinity ligand), and the resulting suspension was stirred. The concentration of the kinase was quantified by qPCR.

[8] = target: T2, DYRK1B (Homo sapiens, UniProt Q9Y463); test: as above; type: binding; design: key: (−) indicates no effect; (+) indicates weak inhibitory activity; (++) indicates a moderate level of inhibitory activity; (+++) indicates strong inhibitory activity; details: 1 μM of compound
T2 construct: made in house
Source text: as §3, §4, §5

[9] = target: T3, DYRK1A (Homo sapiens, UniProt Q13627); test: as above; type: binding; design: key: (−) indicates no effect; (+) indicates weak inhibitory activity; (++) indicates a moderate level of inhibitory activity; (+++) indicates strong inhibitory activity; details: 1 μM of compound
T3 construct: made in house
Source text: as §3, §4, §5

[10] = target: T4, CSNK1D (Homo sapiens, UniProt P48730); test: as above; type: binding; design: key: (−) indicates no effect; (+) indicates weak inhibitory activity; (++) indicates a moderate level of inhibitory activity; (+++) indicates strong inhibitory activity; details: 1 μM of compound
T4 construct: made in house
Source text: as §3, §4, §5

T4 sequence (P48730 whole entry): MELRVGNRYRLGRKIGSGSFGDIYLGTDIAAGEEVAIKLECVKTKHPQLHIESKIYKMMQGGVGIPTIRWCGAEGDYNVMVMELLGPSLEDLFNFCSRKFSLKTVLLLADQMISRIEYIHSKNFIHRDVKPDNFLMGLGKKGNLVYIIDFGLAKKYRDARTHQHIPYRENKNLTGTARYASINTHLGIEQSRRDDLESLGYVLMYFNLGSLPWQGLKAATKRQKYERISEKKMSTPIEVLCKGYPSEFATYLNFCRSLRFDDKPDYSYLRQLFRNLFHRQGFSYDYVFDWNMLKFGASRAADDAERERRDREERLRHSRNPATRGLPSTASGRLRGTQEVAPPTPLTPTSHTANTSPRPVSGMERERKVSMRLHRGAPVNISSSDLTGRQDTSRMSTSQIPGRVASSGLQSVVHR
T2 sequence (Q9Y463 whole entry): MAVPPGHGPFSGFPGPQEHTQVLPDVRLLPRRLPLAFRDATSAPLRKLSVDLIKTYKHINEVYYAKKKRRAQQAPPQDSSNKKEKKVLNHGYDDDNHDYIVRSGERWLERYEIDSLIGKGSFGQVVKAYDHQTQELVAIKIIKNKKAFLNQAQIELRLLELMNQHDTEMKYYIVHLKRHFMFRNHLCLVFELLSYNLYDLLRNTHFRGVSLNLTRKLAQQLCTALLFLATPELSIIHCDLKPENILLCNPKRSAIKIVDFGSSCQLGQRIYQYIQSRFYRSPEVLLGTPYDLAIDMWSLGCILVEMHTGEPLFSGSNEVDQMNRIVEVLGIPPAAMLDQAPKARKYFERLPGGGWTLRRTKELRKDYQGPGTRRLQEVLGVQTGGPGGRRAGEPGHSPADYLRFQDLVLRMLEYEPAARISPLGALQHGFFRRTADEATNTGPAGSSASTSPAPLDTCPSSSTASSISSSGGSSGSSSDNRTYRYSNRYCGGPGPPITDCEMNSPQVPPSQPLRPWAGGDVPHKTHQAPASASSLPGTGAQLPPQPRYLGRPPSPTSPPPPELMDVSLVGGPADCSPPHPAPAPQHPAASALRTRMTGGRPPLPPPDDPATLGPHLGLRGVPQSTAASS
T1 sequence (P04629 33-796): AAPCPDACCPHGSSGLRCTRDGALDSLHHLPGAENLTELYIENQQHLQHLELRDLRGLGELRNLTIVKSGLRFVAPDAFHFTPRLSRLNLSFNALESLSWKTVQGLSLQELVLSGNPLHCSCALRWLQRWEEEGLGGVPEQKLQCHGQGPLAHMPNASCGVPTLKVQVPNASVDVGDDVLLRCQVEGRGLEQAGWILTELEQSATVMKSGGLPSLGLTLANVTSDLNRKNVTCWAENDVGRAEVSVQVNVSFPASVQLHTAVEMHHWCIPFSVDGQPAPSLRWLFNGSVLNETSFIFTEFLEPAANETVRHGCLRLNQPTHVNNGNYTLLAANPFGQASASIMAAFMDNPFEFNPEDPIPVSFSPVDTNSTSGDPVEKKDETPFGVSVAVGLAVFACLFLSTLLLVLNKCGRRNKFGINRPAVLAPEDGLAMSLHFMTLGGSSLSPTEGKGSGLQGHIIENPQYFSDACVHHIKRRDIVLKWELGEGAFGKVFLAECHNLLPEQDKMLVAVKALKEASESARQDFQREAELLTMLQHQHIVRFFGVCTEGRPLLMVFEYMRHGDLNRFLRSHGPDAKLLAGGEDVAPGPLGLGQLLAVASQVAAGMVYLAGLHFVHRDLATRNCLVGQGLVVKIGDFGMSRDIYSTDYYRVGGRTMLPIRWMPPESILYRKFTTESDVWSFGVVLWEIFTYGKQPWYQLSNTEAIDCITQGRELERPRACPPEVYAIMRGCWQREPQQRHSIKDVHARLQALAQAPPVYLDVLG

Compound | pIC50 [1] | pIC50 [2] | pIC50 [3] | pIC50 [4] | pIC50 [5] | pIC50 [6] | NTRK1 inhibitory activity [7] | DYRK1B inhibitory activity [8] | DYRK1A inhibitory activity [9] | CSNK1D inhibitory activity [10] | pIC50 ([1]; Homo sapiens, SNU-638, 72 h) | pIC50 ([2]; 72 h) | pIC50 ([3]; Homo sapiens, SK-HEP1, 72 h) | pIC50 ([4]; Homo sapiens, 72 h) | pIC50 ([5]; Homo sapiens, HCT-116, 72 h) | pIC50 ([6]; Homo sapiens, 72 h)
NC(=O)c1cn([C@@H]2S[C@H](CO)[C@@H](O)[C@H]2O)c2ncnc(N)c12 [Compound 6, 4-amino-7-((2R,3R,4S,5R)-3,4-dihydroxy-5-(hydroxymethyl)tetrahydrothiophen-2-yl)-7H-pyrrolo[2,3-d]pyrimidine-5-carboxamide] |  |  |  |  |  |  | + | ++ | +++ | ++ | 5.95 | 5.74 | 5.78 | 5.68 | 5.87 | 5.70
Nc1ncnc2c1c(-c1cccs1)cn2[C@@H]1S[C@H](CO)[C@@H](O)[C@H]1O [Compound 1b, (2R,3R,4S,5R)-2-(4-amino-5-(thiophen-2-yl)-7H-pyrrolo[2,3-d]pyrimidin-7-yl)-5-(hydroxymethyl)tetrahydrothiophene-3,4-diol] |  |  |  |  |  |  | +++ | ++ | ++ | +++ |  | 5.61 |  |  |  | 
C#Cc1cn([C@@H]2S[C@H](CO)[C@@H](O)[C@H]2O)c2ncnc(N)c12 [Compound 3, (2R,3R,4S,5R)-2-(4-amino-5-ethynyl-7H-pyrrolo[2,3-d]pyrimidin-7-yl)-5-(hydroxymethyl)tetrahydrothiophene-3,4-diol] |  |  |  |  |  |  | ++ | +++ | +++ | ++ | 7.52 | 8.40 | 7.30 | 7.30 | 7.52 | 7.22
CC(C)(C)C#Cc1cn([C@@H]2S[C@H](CO)[C@@H](O)[C@H]2O)c2ncnc(N)c12 [Compound 4c] | < 4.30 | < 4.30 | < 4.30 | 4.53 | < 4.30 | < 4.30 | + | − | − | + |  |  |  |  |  | 
Nc1ncnc2c1c(-c1ccco1)cn2[C@@H]1S[C@H](CO)[C@@H](O)[C@H]1O [Compound 1a, (2R,3R,4S,5R)-2-(4-amino-5-(furan-2-yl)-7H-pyrrolo[2,3-d]pyrimidin-7-yl)-5-(hydroxymethyl)tetrahydrothiophene-3,4-diol] |  |  |  |  |  |  | +++ | +++ | +++ | ++ |  | 5.61 |  |  |  | 

Further lines, results first:

pIC50 [1] | pIC50 [2] | pIC50 [3] | pIC50 [4] | pIC50 [5] | pIC50 [6] | NTRK1 inhibitory activity [7] | DYRK1B inhibitory activity [8] | DYRK1A inhibitory activity [9] | CSNK1D inhibitory activity [10] | pIC50 ([1]; Homo sapiens, SNU-638, 72 h) | pIC50 ([2]; 72 h) | pIC50 ([3]; Homo sapiens, SK-HEP1, 72 h) | pIC50 ([4]; Homo sapiens, 72 h) | pIC50 ([5]; Homo sapiens, HCT-116, 72 h) | pIC50 ([6]; Homo sapiens, 72 h) | Compound
7.32 | 7.11 | 7.30 | 7.13 | 7.42 | 7.15 | +++ | ++ | ++ | ++ |  |  |  |  |  |  | C#Cc1cn([C@@H]2S[C@H](COC(=O)c3ccncc3)[C@@H](O)[C@H]2O)c2ncnc(N)c12 [Compound 7f]
5.28 | 5.45 | 5.29 | 5.17 | 5.79 | 5.32 | ++ | +++ | +++ | +++ |  |  |  |  |  |  | NC(=O)c1cn([C@@H]2S[C@H](COC(=O)c3ccccc3)[C@@H](O)[C@H]2O)c2ncnc(N)c12 [Compound 7h]
5.83 | 5.61 | 5.79 | 5.32 | 5.56 | 5.42 | ++ | +++ | +++ | ++ |  |  |  |  |  |  | N#Cc1cn([C@@H]2S[C@H](CN)[C@@H](O)[C@H]2O)c2ncnc(N)c12 [Compound 10b]
5.03 | 5.33 | 5.00 | 5.17 | 4.90 | 4.35 | ++ | ++ | ++ | ++ |  |  |  |  |  |  | NC(=O)c1cn([C@@H]2S[C@H](CNC(=O)c3ccccc3)[C@@H](O)[C@H]2O)c2ncnc(N)c12 [Compound 8e]
 |  |  |  |  |  |  |  |  |  | 5.01 | 4.88 | 4.99 | 4.95 | 5.01 | 4.93 | C#Cc1cn([C@@H]2S[C@H](CN3CCOCC3)[C@@H](O)[C@H]2O)c2ncnc(N)c12 [Compound 12a, (2R,3R,4S,5R)-2-(4-amino-5-ethynyl-7H-pyrrolo[2,3-d]pyrimidin-7-yl)-5-(morpholinomethyl)tetrahydrothiophene-3,4-diol]
6.89 | 6.64 | 6.74 | 6.54 | 6.64 | 6.57 | ++ | ++ | ++ | ++ |  |  |  |  |  |  | C#Cc1cn([C@@H]2S[C@H](COC(=O)c3ccc(Cl)cc3)[C@@H](O)[C@H]2O)c2ncnc(N)c12 [Compound 7c]
5.42 | 5.53 | 5.25 | 5.81 | 5.44 | 5.59 | ++ | +++ | +++ | +++ |  |  |  |  |  |  | N#Cc1cn([C@@H]2S[C@H](COC(=O)c3ccccc3)[C@@H](O)[C@H]2O)c2ncnc(N)c12 [Compound 7g]
5.45 | < 4.30 | 5.97 | 5.08 | 5.66 | 5.22 | +++ | +++ | +++ | ++ |  |  |  |  |  |  | Nc1ncnc2c1c(-c1ccco1)cn2[C@@H]1S[C@H](COC(=O)c2ccccc2)[C@@H](O)[C@H]1O [Compound 7a]
5.59 | 5.56 | 5.75 | 5.61 | 5.86 | 5.60 | ++ | ++ | ++ | ++ |  |  |  |  |  |  | NC[C@H]1S[C@@H](n2cc(C(N)=O)c3c(N)ncnc32)[C@H](O)[C@@H]1O [Compound 10c]
 |  |  |  |  |  | +++ | +++ | +++ | +++ | 6.21 |  | 6.51 | 6.30 | 6.14 | 6.60 | C#Cc1cn([C@@H]2SC(=C)[C@@H](O)[C@H]2O)c2ncnc(N)c12 [Compound 12b, (2R,3R,4S)-2-(4-amino-5-ethynyl-7H-pyrrolo[2,3-d]pyrimidin-7-yl)-5-methylenetetrahydrothiophene-3,4-diol]
